Drawing on patent publication US20260158009A1 (GENZYME CORPORATION, priority 2023, published 2026), this text covers IC50 for 24 molecules.

One experiment relates to U937 cells. Kind of experiment: Cellular assay in U937 cells: activity of RIPK1 inhibitors on TNFα/zVAD.fmk-induced cell death (necroptosis), CellTiter 96 AQueous (MTS) readout. Type of experiment: cell-based. The following applies: Homo sapiens, U-937. In a few lines: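 Necroptosis was measured by viable-cell MTS reduction (4 h, absorbance 490 nm) after overnight (18–24 h) 37° C culture. Cell suspensions of U937 cells carried TNFα (100 ng/ml) plus zVAD.fmk (50 μM) before compound was added. A 10-point curve (10 μM–0.26 nM or 1 μM–0.07 nM) was run in duplicate, normalised to the control lacking TNFα/zVAD.fmk.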

Experiment [1] addresses T1, hRIPK1 (aa 1-375) fusion protein (Homo sapiens, UniProt Q13546).
T1 construct: hRIPK1 (aa 1-375) fusion protein
T1 sequence (Q13546 1-375): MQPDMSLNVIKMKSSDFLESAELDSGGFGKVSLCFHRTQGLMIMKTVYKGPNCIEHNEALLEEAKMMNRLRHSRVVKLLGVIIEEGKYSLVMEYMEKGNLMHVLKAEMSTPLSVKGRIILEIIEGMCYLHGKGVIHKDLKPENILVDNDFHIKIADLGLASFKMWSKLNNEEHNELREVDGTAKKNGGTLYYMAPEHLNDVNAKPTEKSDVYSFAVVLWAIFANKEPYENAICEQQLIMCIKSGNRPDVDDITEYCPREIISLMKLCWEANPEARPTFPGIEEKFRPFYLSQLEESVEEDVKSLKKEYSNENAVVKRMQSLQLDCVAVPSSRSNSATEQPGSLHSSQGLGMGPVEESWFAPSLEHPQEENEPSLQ
Kind of experiment: ADP-Glo kinase assay: catalytic activity of RIPK1 (autophosphorylation, conversion of ATP to ADP). Type of experiment: biochemical. In a few lines:
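The readout was ADP-Glo luminescence after a 240 min rt autophosphorylation reaction with 50 μM ATP, following 30 min preincubation of 3.6 μg/ml hRIPK1 (aa 1-375) fusion with compound at 33300-1.69 nM final in 1% DMSO. Values came from Levenberg-Marquardt nonlinear fits.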

A word on the IC50: it is the concentration that inhibits the measured activity by half. For `Cc1cn(C[C@H]2CC[C@H](C(=O)N3OCC[C@H]3c3cc(F)cc(F)c3)CC2)c2cc(C(N)=O)ccc12` [compound 111, trans-1-((4-((S)-3-(3,5-difluorophenyl)isoxazolidine-2-carbonyl)cyclohexyl)methyl)-3-methyl-1H-indole-6-carboxamide], the concentration for half-maximal inhibition (IC50) with U937 cells was determined as 10 nM; in experiment [1], 27 nM.
The like results for `Cc1nc(C[C@H]2CC[C@H](C(=O)N3OCC[C@H]3c3cc(F)cc(C#N)c3)CC2)cs1` [compound 239, trans-3-fluoro-5-[(3S)-2-[4-[(2-methylthiazol-4-yl)methyl]cyclohexanecarbonyl]isoxazolidin-3-yl]benzonitrile] were, in that order, 5 nM and 27 nM.
With `COc1cc(C[C@H]2CC[C@H](C(=O)N3OCC[C@H]3c3ccc(C)nc3)CC2)cn2nc(C)nc12` [compound 368, trans-[4-(8-Methoxy-2-methyl-[1,2,4]triazolo[1,5-a]pyridin-6-ylmethyl)-cyclohexyl]-[(S)-3-(6-methyl-pyridin-3-yl)-isoxazolidin-2-yl]-methanone], the values for the concentration for half-maximal inhibition (IC50) (in the experiment with U937 cells; in experiment [1]) were 123 nM and 95 nM, respectively.
As to `N#Cc1cncc(C[C@H]2CC[C@H](C(=O)N3OCC[C@H]3c3cc(F)cc(C#N)c3)CC2)c1` [compound 141, trans-5-[[4-[(3S)-3-(3-cyano-5-fluoro-phenyl)isoxazolidine-2-carbonyl]cyclohexyl]methyl]pyridine-3-carbonitrile], the IC50 in the experiment with U937 cells stood at 17 nM; in experiment [1] it was 13 nM.
The like results for `Cc1cncc([C@@H]2CCON2C(=O)[C@H]2CC[C@H](Cc3cc(F)c4nc(C)nn4c3)CC2)c1` [compound 333, trans-[4-[(8-fluoro-2-methyl-[1,2,4]triazolo[1,5-a]333yrdine-6-yl)methyl]cyclohexyl]-[(3S)-3-(5-methylpyridin-3-yl)-1,2-oxazolidin-2-yl]methanone] were, in that order, 55 nM and 30 nM.
Regarding `CNC(=O)c1ccc(F)c(C[C@H]2CC[C@H](C(=O)N3OCC[C@H]3c3cnccn3)CC2)c1` [compound 175, trans-4-fluoro-N-methyl-3-[[4-[(3S)-3-pyrazin-2-ylisoxazolidine-2-carbonyl]cyclohexyl]methyl]benzamide], the IC50 with U937 cells worked out at 7 nM; in experiment [1], 14 nM.
As to `N#Cc1cc(F)cc([C@@H]2CCON2C(=O)[C@H]2CC[C@H](Cn3ccc4cnccc43)CC2)c1` [compound 15, trans-3-((S)-2-(4-((1H-pyrrolo[3,2-c]pyridin-1-yl)methyl)cyclohexane-1-carbonyl)isoxazolidin-3-yl)-5-fluorobenzonitrile], the IC50 in the experiment with U937 cells came to 11 nM; in experiment [1] it was 46 nM.
Turning to `Cc1ccc([C@@H]2CCON2C(=O)[C@H]2CC[C@H](Cc3cnc(C)nc3)CC2)cn1` [compound 344, trans-[(3S)-3-(6-methylpyridin-3-yl)-1,2-oxazolidin-2-yl]-[4-[(2-methylpyrimidin-5-yl)methyl]cyclohexyl]methanone], the IC50 worked out at 173 nM in the experiment with U937 cells and 243 nM in experiment [1].
The like results for `Cc1cn(C[C@H]2CC[C@H](C(=O)N3OCC[C@H]3c3cc(F)cc(C#N)c3)CC2)c2cc(C(N)=O)ccc12` [compound 110, trans-1-((4-((S)-3-(3-cyano-5-fluorophenyl)isoxazolidine-2-carbonyl)cyclohexyl)methyl)-3-methyl-1H-indole-6-carboxamide] were, in that order, 11 nM and 22 nM.
Take `Cc1ccc([C@@H]2CCON2C(=O)[C@H]2CC[C@H](Cc3ccn4nc(C)nc4c3)CC2)cn1` [compound 373, trans-[(S)-3-(6-Methyl-pyridin-3-yl)-isoxazolidin-2-yl]-[4-(2-methyl-[1,2,4]triazolo[1,5-a]pyridin-7-ylmethyl)-cyclohexyl]-methanone]: the IC50 in the experiment on U937 cells came out at 78 nM; in experiment [1] it was 110 nM.
The corresponding values for `N#Cc1ccc2nn(C[C@H]3CC[C@H](C(=O)N4OCC[C@H]4c4cc(F)cc(F)c4)CC3)cc2c1` [compound 58, trans-2-((4-((S)-3-(3,5-difluorophenyl)isoxazolidine-2-carbonyl)cyclohexyl)methyl)-2H-indazole-5-carbonitrile] are 32 nM and 26 nM.
As to `N#Cc1cnc2cnn(C[C@H]3CC[C@H](C(=O)N4OCC[C@H]4c4cc(F)cc(F)c4)CC3)c2c1` [compound 26, trans-1-((4-((S)-3-(3,5-difluorophenyl)isoxazolidine-2-carbonyl)cyclohexyl)methyl)-1H-pyrazolo[4,3-b]pyridine-6-carbonitrile], the 50% inhibitory concentration (IC50) with U937 cells came to 2 nM; in experiment [1], 20 nM.
As for `Cc1ncc(C[C@H]2CC[C@H](C(=O)N3OCC[C@H]3c3cc(F)cc(C#N)c3)CC2)cn1` [compound 263, trans-3-fluoro-5-[(3S)-2-[4-[(2-methylpyrimidin-5-yl)methyl]cyclohexanecarbonyl]isoxazolidin-3-yl]benzonitrile], the concentration for half-maximal inhibition (IC50) turned out to be 59 nM with U937 cells and 41 nM in experiment [1].
`NC(=O)c1ccc2c(ccn2C[C@H]2CC[C@H](C(=O)N3OCC[C@H]3c3ccccn3)CC2)c1` [compound 255, trans-1-[[4-[(3S)-3-(2-pyridyl)isoxazolidine-2-carbonyl]cyclohexyl]methyl]indole-5-carboxamide]: the results for the half-inhibitory concentration (IC50) (in the experiment with U937 cells; in experiment [1]) were 521 nM and 25 nM, respectively.
Consider `Cc1ncc([C@@H]2CCON2C(=O)[C@H]2CC[C@H](Cc3ccc4ncnn4c3)CC2)cc1F` [compound 337, trans-[(3S)-3-(5-fluoro-6-methylpyridin-3-yl)-1,2-oxazolidin-2-yl]-[4-([1,2,4]triazolo[1,5-a]pyridin-6-ylmethyl)cyclohexyl]methanone], for which the 50% inhibitory concentration (IC50) in the experiment on U937 cells turned out to be 31 nM; in experiment [1] it was 26 nM.
The like results for `NC(=O)c1cc2c(ccn2C[C@H]2CC[C@H](C(=O)N3OCC[C@H]3c3cc(F)cc(F)c3)CC2)cc1F` [compound 77, trans-1-((4-((S)-3-(3,5-difluorophenyl)isoxazolidine-2-carbonyl)cyclohexyl)methyl)-5-fluoro-1H-indole-6-carboxamide] were, in that order, 3 nM and 14 nM.
The corresponding values for `O=C([C@H]1CC[C@H](Cc2cncnc2)CC1)N1OCC[C@H]1c1cnccn1` [compound 248, trans-[(3S)-3-pyrazin-2-ylisoxazolidin-2-yl]-[4-(pyrimidin-5-ylmethyl)cyclohexyl]methanone] are 666 nM and 73 nM.
On to `Cc1cncc([C@@H]2CCON2C(=O)[C@H]2CC[C@H](Cc3cc(C)c4nc(C)nn4c3)CC2)n1` [compound 411, trans-[4-[(2,8-dimethyl-[1,2,4]triazolo[1,5-a]pyridin-6-yl)methyl]cyclohexyl]-[(3S)-3-(6-methylpyrazin-2-yl)isoxazolidin-2-yl]methanone], for which the results for the IC50 (with U937 cells; in experiment [1]) were 36 nM and 48 nM, respectively.
With `N#Cc1cc(F)cc([C@@H]2CCON2C(=O)[C@H]2CC[C@H](Cn3cc4cc(C#N)ccc4n3)CC2)c1` [compound 59, trans-2-((4-((S)-3-(3-cyano-5-fluorophenyl)isoxazolidine-2-carbonyl)cyclohexyl)methyl)-2H-indazole-5-carbonitrile], the figures for the IC50 (with U937 cells; in experiment [1]) were 166 nM and 30 nM, respectively.
For the molecule `Cc1cc(C)n(C[C@H]2CC[C@H](C(=O)N3OCC[C@H]3c3cc(F)cc(F)c3)CC2)n1` [compound 118, trans-((S)-3-(3,5-difluorophenyl)isoxazolidin-2-yl)(4-((3,5-dimethyl-1H-pyrazol-1-yl)methyl)cyclohexyl)methanone], the half-inhibitory concentration (IC50) with U937 cells worked out at 30 nM; in experiment [1], 23 nM.
Consider `Cc1cc(C[C@H]2CC[C@H](C(=O)N3OCC[C@H]3c3cnccn3)CC2)cn2ncnc12` [compound 250, trans-[4-[(8-methyl-[1,2,4]triazolo[1,5-a]pyridin-6-yl)methyl]cyclohexyl]-[(3S)-3-pyrazin-2-yl-1,2-oxazolidin-2-yl]methanone], for which the figures for the IC50 (with U937 cells; in experiment [1]) were 17 nM and 16 nM, respectively.
The corresponding values for `Cc1ccc([C@@H]2CCON2C(=O)[C@H]2CC[C@H](Cc3cc(C)ncc3C)CC2)cn1` [compound 354, trans-[4-(2,5-Dimethyl-pyridin-4-ylmethyl)-cyclohexyl]-[(S)-3-(6-methyl-pyridin-3-yl)-isoxazolidin-2-yl]-methanone] are 27 nM and 33 nM.
For the molecule `O=C([C@H]1CC[C@H](Cc2cnccn2)CC1)N1OCC[C@H]1c1cnccn1` [compound 246, trans-[(3S)-3-pyrazin-2-ylisoxazolidin-2-yl]-[4-(pyrazin-2-ylmethyl)cyclohexyl]methanone], the IC50 with U937 cells was found to be 918 nM; in experiment [1], 150 nM.
Take `COc1cncc([C@@H]2CCON2C(=O)[C@H]2CC[C@H](Cn3cc4ccc(C#N)cc4n3)CC2)n1` [compound 189, trans-2-[[4-[(3S)-3-(6-methoxypyrazin-2-yl)isoxazolidine-2-carbonyl]cyclohexyl]methyl]indazole-6-carbonitrile]: the figures for the IC50 (in the experiment on U937 cells; in experiment [1]) were 623 nM and 138 nM, respectively.
